Results as given in patent US20240307415A1, “STEROID COMPOUND, AND PHARMACEUTICAL COMPOSITION THEREOF AND USE THEREOF” (JIANGSU SIMCERE PHARMACEUTICAL CO., LTD., priority 2021, published 2024).

What was measured:
Format in all cases: in vitro ADME
CYP2C9 = CYP2C9 (Homo sapiens (Human), UniProt P11712); assay: Inhibition of CYP2C9 enzymatic activity in human liver microsomes; conditions: human liver microsome, substrate diclofenac, 5 min
Description: (§1) The inhibition of CYP2C9 and CYP2D6 activity by the compound of the present invention was determined using the following method.
(§2) • 1. Human liver microsome (Corning 452117) • 2. NADPH (Solarbio 705Y021) • 3. Positive substrates diclofenac (Sigma SLBV3438) and dextromethorphan (TRC 3-EDO-175-1) • 4. Positive inhibitors sulfaphenazole (D. Ehrenstorfer GmbH 109012) and quinidine (TCI WEODL-RE) • 5. AB Sciex Triple Quad 5500 liquid chromatography-mass spectrometry system
(§3) • 1. Preparation of 100 mM phosphate-buffered saline (PBS): 7.098 g Na2HPO4 was weighed. 500 mL pure water was added. The mixture was dissolved by sonication to give solution A. 3.400 g KH2PO4 was weighed. 250 mL pure water was added. The mixture was dissolved by sonication to give solution B. The solution A was placed in a stirrer, and the solution B was slowly added until the pH reached 7.4, so that the 100 mM PBS buffer was prepared. • 2. A 10 mM NADPH solution was prepared with a 100 mM PBS buffer. A 10 mM stock solution of the compound of the present invention was diluted with DMSO to give a compound working solution at a concentration of 200×(6000, 2000, 600, 200, 60, 20, and 0 μM). […]
(§4) The reduction of metabolite production in the treatment groups versus the control group was compared by the peak area ratios of the sample to the internal standard, and the IC50 value was calculated using Excel XLfit 5.3.1.3.

CYP2D6 = CYP2D6 (Homo sapiens (Human), UniProt P10635); assay: Inhibition of CYP2D6 enzymatic activity in human liver microsomes; conditions: human liver microsome, substrate dextromethorphan, 20 min
Description: as §1, §2, §3, §4

[1] = Plasma protein binding rate, human plasma (equilibrium dialysis); conditions: pH 7.4, equilibrium dialysis 6 h, 37° C.
Description: (§5) The protein binding rates of the compound of the present invention in plasma of 5 species (humans, monkeys, dogs, rats, and mice) were determined using the following method.
(§6) • 1. Human plasma (BioIVT), monkey plasma (ADME-plasma-pooled monkey-05212020), beagle dog plasma (BioIVT), SD rat plasma (BioIVT), and CD-1 mouse plasma (BioIVT) • 2. Na2HPO4 (Sigma S5136-500G) • 3. NaH2PO4 (Sigma S3139-500G) • 4. NaCl (Sigma S5886-IKG) • 5. 96-well equilibrium dialysis plate (HTDialysis LLC, Gales Ferry, CT, HTD96B) and equilibrium dialysis membrane (MWCO 12-14K, 1101) • 6. Positive control compound warfarin • 7. ABI QTrap 5500 liquid chromatography-mass spectrometry system
(§7) • 1. […] Preparation of a dialysis membrane: the dialysis membrane was soaked in ultrapure water for 60 min to separate the membrane into two pieces, then soaked with 20% ethanol for 20 min, and finally soaked with dialysis buffer for 20 min. • 3. Preparation of plasma: the frozen plasma was quickly thawed at room temperature and then centrifuged at 3,220 g at 4° C. for 10 min to remove clots, and the supernatant was collected to a new centrifuge tube. The pH of the plasma was measured and recorded. The plasma with pH 7-8 was used. • 4. […]
(§8) The peak areas of the compound on the buffer side and the plasma side were measured. The plasma protein binding rate of the compound was calculated by the following formula: […]

[2] = Plasma protein binding rate, mouse plasma (equilibrium dialysis); conditions: CD-1, mouse, pH 7.4, equilibrium dialysis 6 h, 37° C.
Description: as §5, §6, §7, §8

Sequence of CYP2D6 (P10635 whole entry): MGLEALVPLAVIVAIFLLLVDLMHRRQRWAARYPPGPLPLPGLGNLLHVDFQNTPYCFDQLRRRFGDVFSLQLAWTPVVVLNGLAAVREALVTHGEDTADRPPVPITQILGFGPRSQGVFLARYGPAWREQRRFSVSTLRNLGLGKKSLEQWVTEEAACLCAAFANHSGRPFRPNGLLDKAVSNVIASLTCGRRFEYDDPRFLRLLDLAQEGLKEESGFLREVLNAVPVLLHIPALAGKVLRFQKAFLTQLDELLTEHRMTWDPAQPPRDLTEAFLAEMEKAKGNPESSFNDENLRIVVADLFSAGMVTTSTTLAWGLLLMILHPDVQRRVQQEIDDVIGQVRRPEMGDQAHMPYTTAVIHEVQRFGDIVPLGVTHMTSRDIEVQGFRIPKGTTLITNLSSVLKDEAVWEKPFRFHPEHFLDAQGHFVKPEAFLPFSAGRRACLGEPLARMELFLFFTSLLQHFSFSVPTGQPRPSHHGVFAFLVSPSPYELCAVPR
Sequence of CYP2C9 (P11712 whole entry): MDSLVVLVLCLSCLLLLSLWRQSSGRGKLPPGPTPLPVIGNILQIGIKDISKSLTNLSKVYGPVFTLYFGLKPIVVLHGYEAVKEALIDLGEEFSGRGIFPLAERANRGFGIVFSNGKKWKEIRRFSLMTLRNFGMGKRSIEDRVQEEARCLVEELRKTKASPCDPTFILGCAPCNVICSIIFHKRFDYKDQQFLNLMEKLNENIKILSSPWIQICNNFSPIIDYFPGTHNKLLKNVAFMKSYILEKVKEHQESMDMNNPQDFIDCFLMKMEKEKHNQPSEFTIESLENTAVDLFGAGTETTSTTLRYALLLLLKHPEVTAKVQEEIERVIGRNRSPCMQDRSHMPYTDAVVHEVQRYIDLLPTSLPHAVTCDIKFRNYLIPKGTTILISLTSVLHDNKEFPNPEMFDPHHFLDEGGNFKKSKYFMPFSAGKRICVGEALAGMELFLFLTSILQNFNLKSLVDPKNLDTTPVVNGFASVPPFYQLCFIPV

Work on `C[C@]12C=CC(=O)C=C1CC[C@@H]1[C@@H]2[C@@H](O)C[C@@]2(C)[C@H]1C[C@H]1O[C@@H](c3ccc(Cc4cc(N)c5c(c4)CCO5)cc3)O[C@]12C(=O)CO` [Compound 009, (6aR,6bS,7S,8aS,8bS,10R,11aR,12aS,12bS)-10-(4-((7-amino-2,3-dihydrobenzofuran-5-yl)methyl)phenyl)-7-hydroxy-8b-(2-hydroxyacetyl)-6a,8a-dimethyl-6a,6b,7,8,8a,8b,11a,12,12a,12b-decahydro-1H-naphtho[2′,1′:4,5]indeno[1,2-d][1,3]dioxolan-4(2H)-one] yielded an IC50 (CYP2C9) of 7.2 µM, an IC50 (CYP2D6) greater than 50 µM and a fraction unbound at 6 h, 1 μM [1] of 0.002. For the same compound, the fraction unbound at 6 h, 1 μM [2] was 0.002.
